Data as given in patent publication US10285986B2, “Compounds and anti-tumor NQO1 substrates” (The Board of Trustees of the University of Illinois, priority 2011, dated 2019).
Converted amounts (≈) assume the structure as drawn. “And” between values parts separate entries of the source, which are not always exact repeats. Equal entries are not always repeated. Where two headings read alike, the source gives them in different places.

Key:
MCF-7 cells = experiment: Cytotoxicity to MCF-7 cells with or without 25 μM dicoumarol (sulforhodamine B assay); assay type: cell-based, human; settings: for IC50: Homo sapiens; for Fold Protection of MCF7 cells w/ 25 μM dicoumarol: Table 1
How it was run: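 MCF-7 cells, which express high NQO1, were exposed to compounds for 2 hours with or without 25 μM dicoumarol. They were then washed and kept 72 hours in fresh media. Cell death was measured by sulforhodamine B assay.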

NQO1 = NQO1 (Homo sapiens, UniProt P15559); experiment: NQO1 enzymatic measurements in vitro; assay type: biochemical; settings: 1 μM substrate
NQO1, sequence (P15559 whole entry): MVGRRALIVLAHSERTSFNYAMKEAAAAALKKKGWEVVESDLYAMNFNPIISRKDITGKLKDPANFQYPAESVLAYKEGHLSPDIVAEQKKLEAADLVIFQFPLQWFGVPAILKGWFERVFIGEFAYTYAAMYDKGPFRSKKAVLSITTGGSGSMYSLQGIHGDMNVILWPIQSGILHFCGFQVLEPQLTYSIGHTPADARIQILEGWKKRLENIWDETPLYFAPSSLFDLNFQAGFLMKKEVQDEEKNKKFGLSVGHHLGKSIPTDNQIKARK
Experimental: As further evidence that the activity of these DNQ derivatives is dependent on their ability to be reduced by NQO1, full enzymatic measurements in vitro were performed. We found a strong correlation between catalytic efficiency of substrates in vitro and their cell culture toxicity. […] This provides strong evidence that the cytotoxicity of DNQ and its derivatives are dependent primarily upon the activity of NQO1 within the cell.

[1] = Aqueous solubility in pH 7.4 PBS by LC-MS; assay type: physicochemical
How it was run: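 Solid compound was sonicated 30 min in pH 7.4 PBS (the bath warmed to 45 °C, samples were cooled before filtration) and passed through a 0.45 μm filter. Filtrate was quantified by LC-MS with UV at 275 nm against a 1–100 μM DNQ calibration curve, which was also applied to derivatives. Strongly coloured filtrates were diluted 10-fold in PBS.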

[2] = Solubility in 20% HPβCD solution (pH modulation protocol); assay type: physicochemical; settings: for solubility: pH 7.4, aqueous with cosolvent or surfactant or cyclodextrin, thermodynamic from solid, Table 4.3
How it was run: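 Compound slurried in 20% HPβCD in pH 7.4 PBS, dissolved by raising pH with 10 M NaOH, then brought back to pH 7.5-8.0 with 1 M HCl. Solubility compared with buffer alone.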

[3] = Maximum tolerated dose in mice; settings: mouse, ip
Text: Because of the difficulty of repeated tail vein injections in mice, our group is using IP administration of compound.
All of these derivatives are currently being assessed for their maximum tolerated dose (MTD) in healthy mice. Compounds are formulated in HPβCD and delivered by IP injection to two mice once daily for five days.

PAR-PARP1 = experiment: PARP1 hyperactivation (PAR-PARP1 formation) in vivo in orthotopic Lewis Lung Carcinoma model, immunoblotting; design: species or system NOD/SCID mice; settings: iv at or near MTD
Experimental: Antibodies that specifically detect poly(ADP-ribosyl)ated α-PAR (BD Pharmingen, San Jose, Calif.) proteins (e.g., the most abundant species, poly(ADP-ribosyl)ated PARP1, PAR-PARP1) and α-PARP1 (sc-8007, Santa Cruz Biotechnology) antibodies were used at 1:4000 and 1:2000 dilutions, respectively. α-Tubulin was monitored for loading.
To generate a known control to monitor the formation of poly(ADP-ribose)ylated-polymerase 1 (PAR-PARP1) in cells, LLC tumor cells were treated in vitro with hydrogen peroxide (H2O2, 0.5 μM) for 15 minutes, and whole cell protein lysates were separated by SDS-PAGE using the α-PAR (BD Pharmingen, San Jose, Calif.) antibody described above. PAR-PARP1 formation was then assessed by immunoblot analyses as previously described in Huang et al., Cancer Research, 2012.
LLC cells (1.0×10^6) were intravenously (iv) injected into the tail veins of female 18-20 gram NOD/SCID mice. Establishment of tumor nodules in the lungs of exposed mice were confirmed by bioluminescence and mice (5/group) were treated intravenously (via tail vein injection) with: (i) hydroxypropyl-beta-cyclodextrin (HPRCD) vehicle alone; (ii) DNQ (7.5 mg/kg); (ii) DNQ-87 (14 mg/kg); (iii) DNQ-107 (10 mg/kg); or (vi) DNQ 9-251 (20 mg/kg) dissolved in HPRCD. At specific times indicated (in mins) after injection of vehicle or drug, mice were euthanized, lungs removed and tumor nodules harvested. […] Extracts from cells treated with H2O2 were used as controls for monitoring PAR-PARP1 formation in LLC tumor cells.

[4] = Solubility in organic solvents; assay type: physicochemical; settings: organic solvent or mixture, thermodynamic from solid; THF; Table 1
[5] = MCF7, Table 1, read-out: MCF7 IC50
[6] = MCF7, Table 4.2, no DIC, ± s.e., read-out: IC50 vs. MCF-7 cells
[7] = MCF7, classification in figure legends of FIGS. 7-11, read-out: IC50 ("active" / generally "inactive" compounds)
[8] = MCF7, read-out: IC50 vs. MCF-7 cells +25 μM DIC, Table 4.2, +25 μM DIC, ± s.e.
[9] = phosphate buffered saline, pH 7.4, aqueous buffer, thermodynamic from solid, PBS pH 7.4, Table 4.3
[10] = 20% HPβCD in pH 7.4 PBS, 20% HPβCD

SMILES | IC50 (MCF-7 cells; [5]) | IC50 (MCF-7 cells; [6]) | IC50 (MCF-7 cells; [7]) | IC50 (MCF-7 cells; [8]) | Fold Protection of MCF7 cells w/ 25 μM dicoumarol (MCF-7 cells) | Fold protection by DIC (MCF-7 cells; Table 4.2) | NQO1 Initial Velocity @ 1 μM (NQO1) | solubility at 30 min [1, 9] | solubility [2, 10] | MTD at 5 days ([3]; in vivo) | PAR-PARP1 formation in tumor tissue (PAR-PARP1) | solubility [4] | also measured
Cc1cc(=O)[nH]c2c1C(=O)c1c(C)cc(=O)n(CC(C)C)c1C2=O [Compound 87] | 250 nM | 230 ± 20 nM | < 500 nM | 1100 ± 100 nM | 6.1 | 4.8 | 1900 ± 200 | 115 µM (≈ 37.5 µg/mL) | 13000 µM (≈ 4240 µg/mL) | 14 mg/kg and 44 µmol/kg | higher levels of PAR-PARP1 formation | 34000 µM (≈ 11100 µg/mL) | 
Cc1cc(=O)[nH]c2c1C(=O)c1c(C)cc(=O)n(C)c1C2=O [DNQ, Deoxynyboquinone, reference compound] | 190 nM | 130 ± 20 nM | < 500 nM | 1800 ± 300 nM | 7.8 | 14 | 1900 ± 100 | 115 µM (≈ 32.7 µg/mL) | 3300 µM (≈ 938 µg/mL) | 5 mg/kg | formation of PAR-PARP1 | 420 µM (≈ 119 µg/mL) | IC50 (MCF-7 cells; MCF7, 2 h, Table 4.1, 2 h exposure, no DIC, ± s.e., read-out: IC50 vs. MCF-7 cells): 130 ± 20 nM; IC50 (MCF-7 cells; MCF7, read-out: IC50 vs. MCF-7 cells +25 μM DIC, Table 4.1, +25 μM DIC, ± s.e.): 1700 ± 300 nM; Fold protection by DIC (MCF-7 cells; Table 4.1): 14; solubility at 30 min ([1]; pH 7.4 PBS): 100 µM (≈ 28.4 µg/mL); solubility at 30 min ([1]; phosphate buffered saline, pH 7.4, aqueous buffer, thermodynamic from solid, pH 7.4 PBS): 115 µM (≈ 32.7 µg/mL); fold increase in solubility in HPβCD over PBS alone ([2]; 20% HPβCD): 30 fold; solution concentration in HPβCD ([2]; 20% HPβCD in pH 7.4 PBS): 3.3 mM; solution concentration a 40% HPβCD solution would permit ([2]; 40% HPβCD, linear extrapolation): 6.6 mM; MTD ([3]; in vivo): ~5 mg/kg; MTD at 5 days [3]: 18 µmol/kg
